Data taken from PMC5218480 (PLoS ONE, 2017).

System: MV-4-11 cells
Test: Gene expression microarray analysis (Affymetrix PrimeView) and GSEA
Format: cell-based, human
Set-up: RFU PODN (11730768_x_at) / Fold change /veh PODN (11730768_x_at) / RFU LINC00158 (11744669_a_at) / Fold change /veh LINC00158 (11744669_a_at) / RFU DUSP10 (11751237_a_at) / Fold change /veh DUSP10 (11751237_a_at) / RFU ID3 (11757404_x_at) / Fold change /veh ID3 (11757404_x_at) / RFU PLEKHG5 (11737974_s_at) / Fold change /veh PLEKHG5 (11737974_s_at) / RFU LRRC4B (11730491_at) / Fold change /veh LRRC4B (11730491_at) / RFU GIMAP4 (11747438_a_at) / Fold change /veh GIMAP4 (11747438_a_at) / RFU KRT8 (11758183_x_at) / Fold change /veh KRT8 (11758183_x_at) / RFU CNN1 (11734310_a_at) / Fold change /veh CNN1 (11734310_a_at) / RFU VPS37D (11726825_at) / Fold change /veh VPS37D (11726825_at) / RFU C10orf10 (11716522_x_at) / Fold change /veh C10orf10 (11716522_x_at) / RFU KIR2DL2 /// KIR2DL4 /// KIR2DL5A /// KIR2DL5B /// KIR2DS1 /// KIR2DS2 /// KIR2DS3 /// KIR2DS4 /// KIR3DL3 /// KIR3DL3 /// KIR3DS1 (11738374_at) / Fold change /veh KIR2DL2 /// KIR2DL4 /// KIR2DL5A /// KIR2DL5B /// KIR2DS1 /// KIR2DS2 /// KIR2DS3 /// KIR2DS4 /// KIR3DL3 /// KIR3DL3 /// KIR3DS1 (11738374_at) / RFU C1QL1 (11718748_at) / Fold change /veh C1QL1 (11718748_at) / RFU TMPRSS4 (11747572_a_at) / Fold change /veh TMPRSS4 (11747572_a_at) / RFU HAMP (11756126_x_at) / Fold change /veh HAMP (11756126_x_at) / RFU RNFT2 (11725882_a_at) / Fold change /veh RNFT2 (11725882_a_at) / RFU NR4A2 (11747474_a_at) / Fold change /veh NR4A2 (11747474_a_at) / RFU ABCC12 (11746883_a_at) / Fold change /veh ABCC12 (11746883_a_at) / RFU TMEM136 (11760407_x_at) / Fold change /veh TMEM136 (11760407_x_at) / RFU CLDN22 /// WWC2 (11732394_at) / Fold change /veh CLDN22 /// WWC2 (11732394_at) / RFU HLA-DPB1 (11760878_x_at) / Fold change /veh HLA-DPB1 (11760878_x_at) / RFU SPINT1 (11716480_a_at) / Fold change /veh SPINT1 (11716480_a_at) / RFU GAP43 (11754022_s_at) / Fold change /veh GAP43 (11754022_s_at) / RFU A4GNT (11735810_at) / Fold change /veh A4GNT (11735810_at) / RFU PRB3 (11715151_x_at) / Fold change /veh PRB3 (11715151_x_at) / RFU TUBB4B (11761932_at) / Fold change /veh TUBB4B (11761932_at) / RFU CAPN14 (11732068_a_at) / Fold change /veh CAPN14 (11732068_a_at) / RFU TMCC2 (11721928_a_at) / Fold change /veh TMCC2 (11721928_a_at) / RFU IRGQ (11745062_a_at) / Fold change /veh IRGQ (11745062_a_at) / RFU FAM174B (11720279_a_at) / Fold change /veh FAM174B (11720279_a_at) / RFU TMPRSS4 (11748680_a_at) / Fold change /veh TMPRSS4 (11748680_a_at) / RFU FAM212B (11763350_a_at) / Fold change /veh FAM212B (11763350_a_at) / RFU PLEKHG5 (11743358_a_at) / Fold change /veh PLEKHG5 (11743358_a_at) / RFU ZSCAN30 (11745921_a_at) / Fold change /veh ZSCAN30 (11745921_a_at) / RFU CMKLR1 (11741424_a_at) / Fold change /veh CMKLR1 (11741424_a_at) / RFU LOC101060620 /// MAPK8IP1 (11723275_at) / Fold change /veh LOC101060620 /// MAPK8IP1 (11723275_at) / RFU SPTSSB (11747773_x_at) / Fold change /veh SPTSSB (11747773_x_at) / RFU PRSS12 (11739890_at) / Fold change /veh PRSS12 (11739890_at) / RFU BIN1 (11741810_x_at) / Fold change /veh BIN1 (11741810_x_at) / RFU WNT11 (11732464_a_at) / Fold change /veh WNT11 (11732464_a_at) / RFU C10orf10 (11716521_a_at) / Fold change /veh C10orf10 (11716521_a_at) / RFU C5orf56 (11738089_at) / Fold change /veh C5orf56 (11738089_at) / RFU CYB561 (11721691_x_at) / Fold change /veh CYB561 (11721691_x_at) / RFU ANKRD19P (11752326_a_at) / Fold change /veh ANKRD19P (11752326_a_at) / RFU OR2T12 /// OR2T33 /// OR2T8 (11738714_s_at) / Fold change /veh OR2T12 /// OR2T33 /// OR2T8 (11738714_s_at) / RFU VCAN (11748164_a_at) / Fold change /veh VCAN (11748164_a_at) / RFU JSRP1 (11732532_at) / Fold change /veh JSRP1 (11732532_at) / RFU KRTAP10-11 (11738290_x_at) / Fold change /veh KRTAP10-11 (11738290_x_at) / RFU MYO3A (11730013_a_at) / Fold change /veh MYO3A (11730013_a_at) / RFU EBF3 (11725865_a_at) / Fold change /veh EBF3 (11725865_a_at) / RFU CAMK2N1 (11719241_x_at) / Fold change /veh CAMK2N1 (11719241_x_at) / RFU C5orf56 (11738088_a_at) / Fold change /veh C5orf56 (11738088_a_at) / RFU OLFML3 (11715873_a_at) / Fold change /veh OLFML3 (11715873_a_at) / RFU LOC100653217 /// NTM (11731650_a_at) / Fold change /veh LOC100653217 /// NTM (11731650_a_at) / RFU MAPK11 (11762145_a_at) / Fold change /veh MAPK11 (11762145_a_at) / RFU FIZ1 (11724087_x_at) / Fold change /veh FIZ1 (11724087_x_at) / RFU OASL (11726364_x_at) / Fold change /veh OASL (11726364_x_at) / RFU SOX15 (11748057_x_at) / Fold change /veh SOX15 (11748057_x_at) / RFU CD79A (11719716_a_at) / Fold change /veh CD79A (11719716_a_at) / RFU HIST1H1D (11736915_at) / Fold change /veh HIST1H1D (11736915_at) / RFU CASKIN2 (11723855_a_at) / Fold change /veh CASKIN2 (11723855_a_at) / RFU LOC730098 (11760151_x_at) / Fold change /veh LOC730098 (11760151_x_at) / RFU OR4N2 (11742367_at) / Fold change /veh OR4N2 (11742367_at) / RFU PRRT2 (11749266_a_at) / Fold change /veh PRRT2 (11749266_a_at) / RFU SNX32 (11753110_a_at) / Fold change /veh SNX32 (11753110_a_at) / RFU CDHR5 (11726645_a_at) / Fold change /veh CDHR5 (11726645_a_at) / RFU RCAN1 (11760418_a_at) / Fold change /veh RCAN1 (11760418_a_at) / RFU FAM167A (11723789_a_at) / Fold change /veh FAM167A (11723789_a_at) / RFU FAM26E (11764081_at) / Fold change /veh FAM26E (11764081_at) / RFU ISYNA1 (11749810_s_at) / Fold change /veh ISYNA1 (11749810_s_at) / RFU ACY1 (11761880_at) / Fold change /veh ACY1 (11761880_at) / RFU 11764098_at / Fold change /veh 11764098_at / RFU SAMD14 (11745864_x_at) / Fold change /veh SAMD14 (11745864_x_at) / RFU NPB (11741838_a_at) / Fold change /veh NPB (11741838_a_at) / RFU TMPRSS6 (11731388_a_at) / Fold change /veh TMPRSS6 (11731388_a_at) / RFU KRTAP10-2 (11738614_at) / Fold change /veh KRTAP10-2 (11738614_at) / RFU ARHGAP8 /// PRR5-ARHGAP8 (11727945_x_at) / Fold change /veh ARHGAP8 /// PRR5-ARHGAP8 (11727945_x_at) / RFU KRTAP5-7 /// NADSYN1 (11734609_at) / Fold change /veh KRTAP5-7 /// NADSYN1 (11734609_at) / RFU RASL12 (11751679_a_at) / Fold change /veh RASL12 (11751679_a_at) / RFU CDKN2B (11736163_a_at) / Fold change /veh CDKN2B (11736163_a_at) / RFU PRF1 (11729649_at) / Fold change /veh PRF1 (11729649_at) / RFU, ZNF638 /// ZNF638-IT1 / Fold change vs veh, ZNF638 /// ZNF638-IT1 / RFU, PANK3 / Fold change vs veh, PANK3 / RFU, SH3YL1 / Fold change vs veh, SH3YL1 / RFU, ZEB2 / Fold change vs veh, ZEB2 / RFU, NRIP1 / Fold change vs veh, NRIP1 / RFU, PTTG1IP / Fold change vs veh, PTTG1IP / RFU, CAPN2 / Fold change vs veh, CAPN2 / RFU, MED14 / Fold change vs veh, MED14 / RFU, SNORA58 / Fold change vs veh, SNORA58 / RFU, C1orf63 / Fold change vs veh, C1orf63 / RFU, LRRFIP1 / Fold change vs veh, LRRFIP1 / RFU, NDUFAF7 / Fold change vs veh, NDUFAF7 / RFU, SLC12A2 / Fold change vs veh, SLC12A2 / RFU, IBTK / Fold change vs veh, IBTK / RFU, ESF1 / Fold change vs veh, ESF1 / Fold change vs veh, TMEM50B / RFU, TAOK1 / Fold change vs veh, TAOK1 / RFU, ACBD3 / Fold change vs veh, ACBD3 / RFU, TMA16 / Fold change vs veh, TMA16 / RFU, RWDD3 / Fold change vs veh, RWDD3 / RFU, BCAT1 / Fold change vs veh, BCAT1 / RFU, EDEM3 / Fold change vs veh, EDEM3 / RFU, TMEM33 / Fold change vs veh, TMEM33 / RFU, WDR75 / Fold change vs veh, WDR75 / RFU, AHCTF1 / Fold change vs veh, AHCTF1 / RFU, TFRC / Fold change vs veh, TFRC / RFU, ZDHHC17 / Fold change vs veh, ZDHHC17 / RFU, NOM1 / Fold change vs veh, NOM1 / RFU, ARL8B / Fold change vs veh, ARL8B / RFU, ZBTB11 / Fold change vs veh, ZBTB11 / RFU, TAMM41 / Fold change vs veh, TAMM41 / RFU, KIAA1704 /// LOC100996395 / Fold change vs veh, KIAA1704 /// LOC100996395 / RFU, ING1 / Fold change vs veh, ING1 / RFU, TRMT61B / Fold change vs veh, TRMT61B / RFU, FUBP3 / Fold change vs veh, FUBP3 / RFU, TP53 / Fold change vs veh, TP53 / RFU, TNKS2 / Fold change vs veh, TNKS2 / RFU, ZFP14 / Fold change vs veh, ZFP14 / RFU, ACTR2 / Fold change vs veh, ACTR2 / RFU, PPP3R1 / Fold change vs veh, PPP3R1 / RFU, PIK3R1 / Fold change vs veh, PIK3R1 / RFU, HNRNPA1 / Fold change vs veh, HNRNPA1 / RFU, RNF170 / Fold change vs veh, RNF170 / RFU, ZNF28 / Fold change vs veh, ZNF28 / RFU, RNGTT / Fold change vs veh, RNGTT / RFU, OGT / Fold change vs veh, OGT / RFU, BRD1 / Fold change vs veh, BRD1 / RFU, MARS / Fold change vs veh, MARS / RFU, ZNF655 / Fold change vs veh, ZNF655 / RFU, FAHD1 / Fold change vs veh, FAHD1 / RFU, BDP1 / Fold change vs veh, BDP1 / RFU, LRRCC1 / Fold change vs veh, LRRCC1 / RFU, ARID1A / Fold change vs veh, ARID1A / RFU, ZNF146 / Fold change vs veh, ZNF146 / RFU, ZNF330 / Fold change vs veh, ZNF330 / RFU, GPN3 / Fold change vs veh, GPN3 / RFU, C9orf123 / Fold change vs veh, C9orf123 / RFU, N4BP2L2 / Fold change vs veh, N4BP2L2 / RFU, ARFIP1 / Fold change vs veh, ARFIP1 / RFU, FAM179B / Fold change vs veh, FAM179B / RFU, BCL10 / Fold change vs veh, BCL10 / RFU, UHRF1BP1L / Fold change vs veh, UHRF1BP1L / RFU, BET1 / Fold change vs veh, BET1 / RFU, CNOT2 / Fold change vs veh, CNOT2 / RFU, ZNF268 / Fold change vs veh, ZNF268 / Fold change vs veh, ZNF507 / RFU, DGCR2 / Fold change vs veh, DGCR2 / RFU, WDSUB1 / Fold change vs veh, WDSUB1 / Fold change vs veh, HSP90B1 /// MIR3652 / RFU, ADSS / Fold change vs veh, ADSS / RFU, GK / Fold change vs veh, GK / RFU, ZNF148 / Fold change vs veh, ZNF148 / RFU, TAF9 / Fold change vs veh, TAF9 / RFU, SLC1A5 / Fold change vs veh, SLC1A5 / RFU, SLMO2 / Fold change vs veh, SLMO2 / RFU, ABCC4 / Fold change vs veh, ABCC4 / RFU, LOC101060439 /// RAP1B / Fold change vs veh, LOC101060439 /// RAP1B / RFU, RFX7 / Fold change vs veh, RFX7 / RFU, GTPBP10 / Fold change vs veh, GTPBP10 / RFU, CNEP1R1 / Fold change vs veh, CNEP1R1 / RFU, BIVM-ERCC5 /// ERCC5 / Fold change vs veh, BIVM-ERCC5 /// ERCC5 / RFU, ILF3 / Fold change vs veh, ILF3 / RFU 11762660_at / Fold change /veh 11762660_at / RFU VCAN (11757783_s_at) / Fold change /veh VCAN (11757783_s_at) / RFU DDX43 (11728927_at) / Fold change /veh DDX43 (11728927_at) / RFU KRT8 (11758188_x_at) / Fold change /veh KRT8 (11758188_x_at) / RFU NKD1 (11759106_at) / Fold change /veh NKD1 (11759106_at) / RFU SRD5A1 (11742802_a_at) / Fold change /veh SRD5A1 (11742802_a_at) / RFU TPSAB1 /// TPSB2 (11721975_s_at) / Fold change /veh TPSAB1 /// TPSB2 (11721975_s_at) / RFU GSTM3 (11746129_a_at) / Fold change /veh GSTM3 (11746129_a_at) / RFU IL23R (11737362_x_at) / Fold change /veh IL23R (11737362_x_at) / RFU TMEM51 (11727254_a_at) / Fold change /veh TMEM51 (11727254_a_at) / RFU PIWIL2 (11732686_x_at) / Fold change /veh PIWIL2 (11732686_x_at) / RFU ORM1 (11744905_x_at) / Fold change /veh ORM1 (11744905_x_at) / RFU CCDC152 (11743942_at) / Fold change /veh CCDC152 (11743942_at) / RFU ECM1 (11717891_a_at) / Fold change /veh ECM1 (11717891_a_at) / RFU IL23R (11748794_a_at) / Fold change /veh IL23R (11748794_a_at) / RFU TNFAIP8L3 (11732012_x_at) / Fold change /veh TNFAIP8L3 (11732012_x_at) / RFU MBOAT4 (11741988_at) / Fold change /veh MBOAT4 (11741988_at) / RFU 11764193_at / Fold change /veh 11764193_at / RFU TMEM53 (11763286_at) / Fold change /veh TMEM53 (11763286_at) / RFU MAGEB2 (11727129_at) / Fold change /veh MAGEB2 (11727129_at) / RFU TMEM200A (11744735_a_at) / Fold change /veh TMEM200A (11744735_a_at) / RFU CCDC152 (11751479_a_at) / Fold change /veh CCDC152 (11751479_a_at) / RFU FAM211A (11726209_a_at) / Fold change /veh FAM211A (11726209_a_at) / RFU RGS16 (11746705_a_at) / Fold change /veh RGS16 (11746705_a_at) / RFU VCAN (11755009_s_at) / Fold change /veh VCAN (11755009_s_at) / RFU RHOB (11743442_s_at) / Fold change /veh RHOB (11743442_s_at) / RFU RGS16 (11720943_a_at) / Fold change /veh RGS16 (11720943_a_at) / RFU RGS16 (11720944_at) / Fold change /veh RGS16 (11720944_at) / RFU, VPS4B / Fold change vs veh, VPS4B / RFU, CREB1 / Fold change vs veh, CREB1 / RFU, DNAJC13 / Fold change vs veh, DNAJC13 / RFU, GNAQ / Fold change vs veh, GNAQ / RFU, CDK5R1 / Fold change vs veh, CDK5R1 / RFU, ZRANB3 / Fold change vs veh, ZRANB3 / RFU, CUL4A / Fold change vs veh, CUL4A / RFU, CCNY / Fold change vs veh, CCNY / RFU, UFL1 / Fold change vs veh, UFL1 / RFU, COG3 / Fold change vs veh, COG3 / RFU, DIAPH2 / Fold change vs veh, DIAPH2 / RFU, SKA2 / Fold change vs veh, SKA2 / RFU, AFF3 / Fold change vs veh, AFF3 / RFU, LMF1 / Fold change vs veh, LMF1 / RFU, IPO11 / Fold change vs veh, IPO11 / RFU, DFFB / Fold change vs veh, DFFB / RFU, FOXP1 / Fold change vs veh, FOXP1 / RFU, CARD8 / Fold change vs veh, CARD8 / RFU, STRN3 / Fold change vs veh, STRN3 / RFU, ADK / Fold change vs veh, ADK / RFU, RASSF2 / Fold change vs veh, RASSF2 / RFU, WIPF1 / Fold change vs veh, WIPF1 / RFU, LARP1B / Fold change vs veh, LARP1B / RFU, RASA1 / Fold change vs veh, RASA1 / RFU, RB1 / Fold change vs veh, RB1 / RFU, PPFIA1 / Fold change vs veh, PPFIA1 / RFU, MAT2A / Fold change vs veh, MAT2A / RFU, CCT5 / Fold change vs veh, CCT5 / RFU, WDR92 / Fold change vs veh, WDR92 / RFU, CUX1 / Fold change vs veh, CUX1 / RFU, TTC7A / Fold change vs veh, TTC7A / RFU, TMEM135 / Fold change vs veh, TMEM135 / RFU, DEPTOR / Fold change vs veh, DEPTOR / RFU, CPM / Fold change vs veh, CPM / RFU, DNAJB6 / Fold change vs veh, DNAJB6 / RFU, CACNA2D3 / Fold change vs veh, CACNA2D3 / RFU, DTX4 / Fold change vs veh, DTX4 / RFU, TFCP2 / Fold change vs veh, TFCP2 / RFU, GMCL1 /// GMCL1P1 / Fold change vs veh, GMCL1 /// GMCL1P1 / RFU, AEBP2 / Fold change vs veh, AEBP2 / RFU, SNHG1 /// SNORD22 /// SNORD25 /// SNORD26 /// SNORD27 /// SNORD28 /// SNORD29 /// SNORD31 / Fold change vs veh, SNHG1 /// SNORD22 /// SNORD25 /// SNORD26 /// SNORD27 /// SNORD28 /// SNORD29 /// SNORD31 / Fold change (Aza/veh), C12orf56 (ProbeSet 11735607_a_at) / Fold change (ACY-1035/veh), C12orf56 (ProbeSet 11735607_a_at) / Fold change (Aza/veh), FGFR1OP (ProbeSet 11751329_s_at) / Fold change (ACY-1035/veh), FGFR1OP (ProbeSet 11751329_s_at) / Fold change (Aza/veh), VPS36 (ProbeSet 11739960_a_at) / Fold change (ACY-1035/veh), VPS36 (ProbeSet 11739960_a_at) / RFU SYPL1 (11715823_x_at) / Fold change /veh SYPL1 (11715823_x_at) / RFU IGFBP7 (11715501_s_at) / Fold change /veh IGFBP7 (11715501_s_at) / RFU REEP3 (11722064_at) / Fold change /veh REEP3 (11722064_at) / RFU IGLL1 (11728026_x_at) / Fold change /veh IGLL1 (11728026_x_at): dose or concentration left out as unconfirmed
Conditions: MV-4-11 cells, 48 hours

With Nc1ccc(-c2cccs2)cc1NC(=O)c1ccc2c(c1)cc(C1CC1)n2CCN1CCOCC1 [ACY-1035] as the molecule, how does the “RFU C10orf10 (11716522_x_at)” value read?
Its value is 43.57 RFU.
